Biological target: T1, full-length ATR (Homo sapiens, UniProt Q13535)
T1 construct: Assays were carried out at 25° C. in the presence of 5 nM full-length ATR
Experiment: ATR Inhibition Assay (radioactive-phosphate incorporation)
Format: biochemical
Settings: for % inhibition of ATR / inhibition at 8 µM: at 8 uM
Experimental: Compounds were screened for their ability to inhibit ATR kinase using a radioactive-phosphate incorporation assay. Assays were carried out in a mixture of 50 mM Tris/HCl (pH 7.5), 10 mM MgCl2 and 1 mM DTT. Final substrate concentrations were 10 μM [γ-33P]ATP (3mCi 33P ATP/mmol ATP, Perkin Elmer) and 800 μM target peptide ([…] (SEQ. ID NO: 1)).
Assays were carried out at 25° C. in the presence of 5 nM full-length ATR. An assay stock buffer solution was prepared containing all of the reagents listed above, with the exception of ATP and the test compound of interest. 13.5 μL of the stock solution was placed in a 96 well plate followed by addition of 2 μL of DMSO stock containing serial dilutions of the test compound (typically starting from a final concentration of 15 μM with 3-fold serial dilutions) in duplicate (final DMSO concentration 7%). The plate was pre-incubated for 10 minutes at 25° C. and the reaction initiated by addition of 15 μl. [γ-33P]ATP (final concentration 10 μM).
The reaction was stopped after […] by the addition of 30 μL 0.1 M phosphoric acid containing 2 mM ATP. A multiscreen phosphocellulose filter 96-well plate (Millipore, Cat no. MAPHN0B50) was pretreated with 100 μL 0.2M phosphoric acid prior to the addition of 45 μL of the stopped assay mixture. The plate was washed with 5×200 μL 0.2 M phosphoric acid. After drying, 100 μL Optiphase ‘SuperMix’ liquid scintillation cocktail (Perkin Elmer) was added to the well prior to scintillation counting (1450 Microbeta Liquid Scintillation Counter, Wallac).
After removing mean background values for all of the data points, Ki(app) data were calculated from non-linear regression analysis of the initial rate data using the Prism software package (GraphPad Prism version 3.0cx for Macintosh, GraphPad Software, San Diego Calif., USA).

T1 sequence (Q13535 whole entry): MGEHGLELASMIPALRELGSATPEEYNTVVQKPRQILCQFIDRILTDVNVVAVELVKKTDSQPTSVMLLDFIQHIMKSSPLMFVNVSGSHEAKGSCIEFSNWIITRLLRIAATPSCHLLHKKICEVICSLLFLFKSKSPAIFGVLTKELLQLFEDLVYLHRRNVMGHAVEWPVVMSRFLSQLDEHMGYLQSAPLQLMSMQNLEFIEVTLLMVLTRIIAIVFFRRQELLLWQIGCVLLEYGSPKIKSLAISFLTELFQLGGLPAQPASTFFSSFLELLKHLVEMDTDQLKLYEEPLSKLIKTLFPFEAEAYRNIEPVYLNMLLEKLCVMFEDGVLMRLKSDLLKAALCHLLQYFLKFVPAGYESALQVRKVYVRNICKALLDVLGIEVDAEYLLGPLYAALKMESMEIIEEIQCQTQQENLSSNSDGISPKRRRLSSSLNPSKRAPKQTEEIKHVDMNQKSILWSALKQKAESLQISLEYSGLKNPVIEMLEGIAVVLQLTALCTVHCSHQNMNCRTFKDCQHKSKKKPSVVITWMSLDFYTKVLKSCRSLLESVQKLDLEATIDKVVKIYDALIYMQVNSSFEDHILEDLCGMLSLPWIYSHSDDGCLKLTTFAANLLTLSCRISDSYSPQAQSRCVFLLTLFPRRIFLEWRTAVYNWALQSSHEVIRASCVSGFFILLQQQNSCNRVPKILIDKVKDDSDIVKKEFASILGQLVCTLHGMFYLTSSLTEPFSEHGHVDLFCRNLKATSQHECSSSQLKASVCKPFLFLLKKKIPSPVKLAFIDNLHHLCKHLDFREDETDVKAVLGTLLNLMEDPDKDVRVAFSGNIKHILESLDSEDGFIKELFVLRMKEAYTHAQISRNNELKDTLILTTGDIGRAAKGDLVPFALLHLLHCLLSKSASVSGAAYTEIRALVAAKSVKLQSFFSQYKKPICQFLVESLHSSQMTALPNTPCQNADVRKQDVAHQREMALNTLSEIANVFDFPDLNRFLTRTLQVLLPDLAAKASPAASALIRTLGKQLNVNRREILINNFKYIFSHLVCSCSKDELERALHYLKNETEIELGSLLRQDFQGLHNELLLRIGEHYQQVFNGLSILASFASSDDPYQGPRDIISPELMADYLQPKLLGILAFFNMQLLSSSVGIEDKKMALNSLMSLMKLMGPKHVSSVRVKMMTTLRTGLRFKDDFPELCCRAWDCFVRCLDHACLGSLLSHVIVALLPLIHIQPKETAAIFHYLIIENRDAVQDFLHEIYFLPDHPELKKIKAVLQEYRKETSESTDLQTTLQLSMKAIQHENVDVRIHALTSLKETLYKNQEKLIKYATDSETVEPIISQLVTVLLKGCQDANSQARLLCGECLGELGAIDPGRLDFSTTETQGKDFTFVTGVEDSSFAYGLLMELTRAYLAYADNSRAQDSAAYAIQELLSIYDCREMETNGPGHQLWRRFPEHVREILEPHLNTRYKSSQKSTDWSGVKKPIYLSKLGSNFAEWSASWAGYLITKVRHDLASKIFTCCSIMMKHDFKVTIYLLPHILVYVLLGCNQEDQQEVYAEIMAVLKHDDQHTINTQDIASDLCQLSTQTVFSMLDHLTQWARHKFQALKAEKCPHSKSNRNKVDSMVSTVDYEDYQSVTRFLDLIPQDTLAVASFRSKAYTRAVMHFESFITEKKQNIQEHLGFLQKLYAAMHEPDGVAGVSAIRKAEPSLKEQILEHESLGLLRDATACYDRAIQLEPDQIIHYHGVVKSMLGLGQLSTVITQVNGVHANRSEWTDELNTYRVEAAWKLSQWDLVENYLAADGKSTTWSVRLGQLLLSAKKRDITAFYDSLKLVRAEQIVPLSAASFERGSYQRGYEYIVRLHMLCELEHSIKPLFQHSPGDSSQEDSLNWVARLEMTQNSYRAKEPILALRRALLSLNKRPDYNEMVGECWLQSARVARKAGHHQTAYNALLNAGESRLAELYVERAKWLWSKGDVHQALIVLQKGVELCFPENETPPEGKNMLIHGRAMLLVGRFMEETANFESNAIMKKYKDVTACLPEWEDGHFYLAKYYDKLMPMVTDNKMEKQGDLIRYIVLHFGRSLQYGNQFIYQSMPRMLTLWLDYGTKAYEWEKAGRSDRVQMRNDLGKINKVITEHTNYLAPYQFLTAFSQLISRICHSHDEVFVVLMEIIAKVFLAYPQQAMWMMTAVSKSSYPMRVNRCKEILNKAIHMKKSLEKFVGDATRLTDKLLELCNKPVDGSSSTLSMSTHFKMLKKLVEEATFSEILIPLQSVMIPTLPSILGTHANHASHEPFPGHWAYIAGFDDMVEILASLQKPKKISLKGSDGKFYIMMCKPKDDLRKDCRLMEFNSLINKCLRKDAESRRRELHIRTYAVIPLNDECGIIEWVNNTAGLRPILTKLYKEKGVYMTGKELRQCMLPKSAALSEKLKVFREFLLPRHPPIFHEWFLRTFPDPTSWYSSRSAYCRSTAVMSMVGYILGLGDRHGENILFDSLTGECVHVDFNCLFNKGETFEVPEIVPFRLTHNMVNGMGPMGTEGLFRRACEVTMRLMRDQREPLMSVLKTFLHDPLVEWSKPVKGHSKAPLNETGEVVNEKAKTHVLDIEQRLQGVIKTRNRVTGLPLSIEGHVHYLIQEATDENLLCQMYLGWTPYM

| % inhibition of ATR | Ki | inhibition at 8 µM | Structure (SMILES) |
| --- | --- | --- | --- |
|  | > 1000 nM | 10% | CC(C)S(=O)(=O)c1ccc(-c2cnc(N)c(NCc3ccccc3)n2)cc1 [Compound V-3] |
|  |  | 20% | CC(C)S(=O)(=O)c1ccc(-c2cnc(N)c(NCCc3ccccc3)n2)cc1 [Compound V-5, 5-(4-Isopropylsulfonylphenyl)-N3-phenethyl-pyrazine-2,3-diamine] |
|  | ≤ 100 nM |  | CS(=O)(=O)c1ccc(-c2cnc(N)c(OCc3ccccc3)n2)cc1 [Compound V-9] |
|  | ≤ 100 nM |  | CS(=O)(=O)c1ccc(-c2cnc(N)c(/C=C/c3ccccc3)n2)cc1 [Compound V-10] |
|  | ≤ 100 nM |  | CC(C)S(=O)(=O)c1ccc(-c2cnc(N)c(CCc3ccccc3)n2)cc1 [Compound V-11, 5-(4-Isopropylsulfonylphenyl)-3-phenethyl-pyrazin-2-amine] |
|  | ≤ 100 nM |  | CC(C)S(=O)(=O)c1ccc(-c2cnc(N)c(C(=O)c3ccccc3)n2)cc1 [Compound V-12, [3-Amino-6-(4-isopropylsulfonylphenyl)pyrazin-2-yl]-phenyl-methanone] |
|  | > 1000 nM |  | CC(C)S(=O)(=O)c1ccc(-c2cnc(N)c(NCCc3ccccc3)n2)cc1 [Compound V-13, 6-(4-(isopropylsulfonyl)phenyl)-N2-phenethylpyrazine-2,3-diamine] |
| no detectable inhibition | > 1000 nM |  | CS(=O)(=O)c1ccc(-c2cnc(N)c(NS(=O)(=O)c3ccccc3)n2)cc1 [Compound V-14, N-(3-amino-6-(4-(methylsulfonyl)phenyl)pyrazin-2-yl)benzenesulfonamide] |
|  | 100 to 1000 nM |  | CC(C)n1cc(-c2cnc(N)c(OCc3ccccc3)n2)ccc1=O [Compound V-15, 5-(5-amino-6-(benzyloxy)pyrazin-2-yl)-1-isopropylpyridin-2(1H)-one] |

Further lines, the compound ahead of its results:

| Structure (SMILES) | % inhibition of ATR | Ki | inhibition at 8 µM |
| --- | --- | --- | --- |
| CC(C)S(=O)(=O)c1ccc(-c2cnc(N)c(N3CCN(c4ccccc4)CC3)n2)cc1 [Compound V-1, 5-(4-Isopropylsulfonylphenyl)-3-(4-phenylpiperazin-1-yl)pyrazin-2-amine] | no detectable inhibition |  |  |
| CC(C)S(=O)(=O)c1ccc(-c2cnc(N)c(N3CCC(N)C3)n2)cc1 (centres unmarked) [Compound V-2, 3-(3-Aminopyrrolidin-1-yl)-5-(4-isopropylsulfonylphenyl)pyrazin-2-amine] |  | > 1000 nM | 10% |
| CC(C)S(=O)(=O)c1ccc(-c2cnc(N)c(NCC3=CC(O)CC=C3)n2)cc1 (centres unmarked) [Compound V-4] |  | 100 to 1000 nM |  |
| CC(C)S(=O)(=O)c1ccc(-c2cnc(N)c(NC[C@H](O)c3ccccc3)n2)cc1 [Compound V-6, (1R)-2-[[3-amino-6-(4-isopropylsulfonylphenyl)pyrazin-2-yl]amino-]-1-phenyl-ethanol] |  | > 1000 nM | 10% |
| CC(C)S(=O)(=O)c1ccc(-c2cnc(N)c(NC[C@@H](O)c3ccccc3)n2)cc1 [Compound V-7, (1S)-2-[[3-Amino-6-(4-isopropylsulfonylphenyl)pyrazin-2-yl]amino]-1-phenyl-ethanol] |  | > 1000 nM | 30% |
| CC(C)S(=O)(=O)c1ccc(-c2cnc(N)c(/C(F)=C/c3ccccc3)n2)cc1 [Compound V-16, (Z)-3-(1-fluoro-2-phenylvinyl)-5-(4-(isopropylsulfonyl)phenyl)pyrazin-2-amine] |  | ≤ 100 nM |  |
